Reference: PMC10138577, “Prenylated Flavonoids with Selective Toxicity against Human Cancers” (International Journal of Molecular Sciences, 2023)

Assays:
Format in all cases: cell-based
[1] = tested on: SK-BR-3 human breast adenocarcinoma cells; assay: In vitro antiproliferative assay (SRB), SK-BR-3; conditions: for IC50: Homo sapiens, SK-BR-3, 72 h exposure, SRB, mean ± SD; for Calculated selectivity index SIB: IC50 BALB/3T3/IC50 SK-BR-3; for Calculated selectivity index SIA: IC50 HLMEC/IC50 SK-BR-3
Source text: (§1) The following established in vitro cell lines were applied: human breast adenocarcinoma (MCF-7 and SK-BR-3), human breast ductal carcinoma (T47D), human prostate adenocarcinoma (PC-3), human prostate carcinoma (Du145), human colorectal adenocarcinoma (HT-29 and LoVo), doxorubicin-resistant human colorectal adenocarcinoma (LoVo/Dx), human myelomonocytic leukemia (MV-4-11), human lung adenocarcinoma (A549), normal murine embryonic fibroblasts (BALB/3T3) and human lung microvascular endothelial (HLMEC). All the cell lines were obtained from the American Type Culture Collection (Rockville, MD, USA) except for LoVo and LoVo/DX, which were received from the Technical University of Gdańsk, Poland, courtesy of Prof. E. Borowski. All the cell lines were maintained in the Institute of Immunology and Experimental Therapy, Wroclaw, Poland. The cells were cultured in the following media: DMEM medium (BALB/3T3), Eagle medium (MCF-7, SK-BR-3, Du145), RPMI medium (HLMEC, MV-4-11) or RPMI 1640 + Opti-MEM (1:1) medium (A549, T47D, LoVo, LoVo/Dx, PC-3, HT-29). The DMEM medium was supplemented with 2 mM L-glutamine and 10% fetal bovine serum. The Eagle medium was supplemented with 4 mM L-glutamine, 10% fetal bovine serum, 1 mM sodium pyruvate for Du145 cells or 2 mM L-glutamine, 1% amino acids and 0.8 mg L^−1 of insulin for MCF-7 and SK-BR-3. The RPMI medium was supplemented with 2 mM L-glutamine, 1 mM sodium pyruvate and 10% fetal bovine serum. The RPMI 1640 + Opti-MEM (1:1) medium was supplemented with 2 mM L-glutamine, 5% fetal bovine serum (PC-3, A549) and 0.8 mg L^−1 insulin (T47D) or 1 mM sodium pyruvate (HT-29, LoVo, LoVoDx) and 0.1 ug/mL doxorubicin (LoVo/Dx). The media contained antibiotics: 100 µg mL^−1 streptomycin and 100 U mL^−1 penicillin. All the cell lines were incubated at 37 °C in a humid atmosphere saturated with 5% CO2.
(§2) The details of this technique were described by Skehan et al.. After 72 h of incubation with the tested compounds, the cells were fixed in situ by gently adding cold 50% trichloroacetic acid—TCA (50 µL per well). The plates were incubated at 4 °C for 1 h and then washed five times with tap water and air-dried. Next, the cellular material fixed with TCA was stained by adding 50 µL of 0.4% sulforhodamine B dissolved in 1% acetic acid to each well and incubating the wells for 30 min at room temperature. The unbound dye was removed by washing the plates five times with 1% acetic acid, whereas the stain bound to the cells was extracted with 150 µL of 10 mM unbuffered Tris base for determination of the optical density at a 540 nm wavelength in a computer-interfaced, 96-well microtiter plate reader–Multiskan FC photometer (Thermo Scientific, Waltham, MA, USA). The background optical density was measured in the wells filled with culture medium, without the cells.
(§3) Twenty-four hours before incubation with the tested compounds, the cells were seeded in 96-well plates (Sarstedt, Nümbrecht, Germany) at a density of 10^4 cells per well (10^3 cells per well for HLMEC) in 100 µL of culture medium. The analysis of the antiproliferative activity of the compounds was performed using sulforhothamine B (SRB) (for all the adherent cells) or 3-(4,5-dimethylthiazol-2-yl)-2,5-diphenyl tetrazolium bromide (MTT) (for the leukemia cells—MV-4-11). The details of this technique have been previously described by Skehan et al. and Antoszak et al.. An assay was performed after 72 h of exposure at varying concentrations (from 0.1 to 100 µg mL^−1) of xanthohumol (1), aurone (2) and the reference drug cisplatin. Each compound at each concentration was tested in a single experiment, which was repeated at least 3 times. […] The results were calculated as the IC50 (μM) (half maximal inhibitory concentration), i.e., the concentration of the tested agent that inhibits the proliferation of the cancer cell population by half. […]

[2] = tested on: T47D human breast ductal carcinoma cells; assay: In vitro antiproliferative assay (SRB), T47D; conditions: for IC50: Homo sapiens, T47D, 72 h exposure, SRB, mean ± SD; for Calculated selectivity index SIB: IC50 BALB/3T3/IC50 T47D; for Calculated selectivity index SIA: IC50 HLMEC/IC50 T47D
Source text: as §1, §2, §3

[3] = tested on: HT-29 human colorectal adenocarcinoma cells; assay: In vitro antiproliferative assay (SRB), HT-29; conditions: for IC50: HT-29, 72 h exposure, SRB, mean ± SD; for Calculated selectivity index SIB: IC50 BALB/3T3/IC50 HT-29; for Calculated selectivity index SIA: IC50 HLMEC/IC50 HT-29
Source text: as §1, §2, §3

[4] = tested on: Du145 human prostate carcinoma cells; assay: In vitro antiproliferative assay (SRB), Du145; conditions: for IC50: Homo sapiens, DU-145, Du145, 72 h exposure, SRB, mean ± SD; for Calculated selectivity index SIB: IC50 BALB/3T3/IC50 Du145; for Calculated selectivity index SIA: IC50 HLMEC/IC50 Du145
Source text: as §1, §2, §3

[5] = tested on: normal murine embryonic fibroblasts (BALB/3T3); assay: In vitro cytotoxicity against normal cells (SRB), BALB/3T3; conditions: BALB/3T3; for IC50: Mus musculus, BALB3T3 normal cell line, 72 h exposure, SRB, mean ± SD, read-out: Antiproliferative activity IC50
Source text: as §1
The details of this technique were described by Skehan et al.. […] The unbound dye was removed by washing the plates five times with 1% acetic acid, whereas the stain bound to the cells was extracted with 150 µL of 10 mM unbuffered Tris base for determination of the optical density at a 540 nm wavelength in a computer-interfaced, 96-well microtiter plate reader–Multiskan FC photometer (Thermo Scientific, Waltham, MA, USA). The background optical density was measured in the wells filled with culture medium, without the cells.
Twenty-four hours before incubation with the tested compounds, the cells were seeded in 96-well plates (Sarstedt, Nümbrecht, Germany) at a density of 10^4 cells per well (10^3 cells per well for HLMEC) in 100 µL of culture medium. […] The results were calculated as the IC50 (μM) (half maximal inhibitory concentration), i.e., the concentration of the tested agent that inhibits the proliferation of the cancer cell population by half. […]

[6] = tested on: MCF-7 human breast adenocarcinoma cells; assay: In vitro antiproliferative assay (SRB), MCF-7; conditions: for IC50: Homo sapiens, MCF7, MCF-7, 72 h exposure, SRB, mean ± SD; for Calculated selectivity index SIB: IC50 BALB/3T3/IC50 MCF-7; for Calculated selectivity index SIA: IC50 HLMEC/IC50 MCF-7
Source text: as §1, §2, §3

[7] = tested on: A549 human lung adenocarcinoma cells; assay: In vitro antiproliferative assay (SRB), A549; conditions: for IC50: Homo sapiens, A549, 72 h exposure, SRB, mean ± SD; for Calculated selectivity index SIB: IC50 BALB/3T3/IC50 A549; for Calculated selectivity index SIA: IC50 HLMEC/IC50 A549
Source text: as §1, §2, §3

IC50 [1]	IC50 [2]	IC50 ([3]; Homo sapiens, HT-29, 72 h)	IC50 [4]	IC50 [6]	IC50 [7]	Compound	Calculated selectivity index SIB [1]	Calculated selectivity index SIA [1]	Calculated selectivity index SIB [2]	Calculated selectivity index SIA [2]	Calculated selectivity index SIB [3]	Calculated selectivity index SIA [3]	Calculated selectivity index SIB [4]	Calculated selectivity index SIA [4]	IC50 [5]	Calculated selectivity index SIB [6]	Calculated selectivity index SIA [6]	Calculated selectivity index SIB [7]	Calculated selectivity index SIA [7]	further results
12.6 ± 2.28 µM	8.27 ± 1.23 µM	> 50 µM	10.3 ± 0.42 µM	9.29 ± 0.27 µM	10 ± 0.71 µM	COc1cc(O)c(CC=C(C)C)c(O)c1C(=O)/C=C/c1ccc(O)cc1 [compound 1, 3′-[3″,3″-dimethylallyl]-2′,4′,4-trihydroxy-6′-methoxychalcone]	1.56	2.89	2.37	4.39	0.21	0.40	1.90	3.51	19.6 ± 2.95 µM	2.11	3.91	1.96	3.62	IC50 ([3]; listed as xanthohumol (1)): 91.3 ± 8.92 µM
11.3 ± 0.17 µM	8.09 ± 2.21 µM	> 50 µM	14.7 ± 4.42 µM	9.28 ± 0.5 µM	16.6 ± 3.29 µM	COc1cc(O)c(CC=C(C)C)c2c1C(=O)/C(=C/c1ccc(O)cc1)O2 [compound 2, (Z)-6,4′-dihydroxy-4-methoxy-7-prenylaurone]	3.93	4.67	5.50	6.53	0.72	0.85	3.02	3.59	44.5 ± 5.16 µM	4.79	5.69	2.68	3.18	IC50 ([3]; listed as aurone (2)): 62.1 ± 16.5 µM; reduction of cytotoxic effect against normal cells relative to xanthohumol (1) ([5]; p < 0.05): 2.3 fold
